By Kd is commonly meant the constant that tells how readily two partners part at equilibrium. The low end stands for a tighter complex, the high end for a looser complex.

Ratio and Kd data for 15 compounds are collected here from ChEMBL document CHEMBL1134253, “HIV Rev peptides conjugated with peptide nucleic acids and their efficient binding to RRE RNA” (Bioorg Med Chem Lett, 2001).

Test [1] relates to Rev responsive element (RRE) RNA. The experiment in a line: Ratio of the dissociation constant between Rev37-50 and the PNA-peptide. Type of test: nucleic-acid assay.
The target in test [2] is Rev responsive element (RRE) RNA. The experiment in a line: Dissociation constant of compound with Rev-responsive element (RRE) IIB RNA was determined by the competition assay. It is filed as nucleic-acid assay.

For `C[C@H](NC(=O)CN(CCNC(=O)CN(CCNC(=O)CCC(=O)O)C(=O)Cn1cnc2c(=O)[nH]c(N)nc21)C(=O)Cn1ccc(N)nc1=O)C(=O)N[C@@H](CCCNC(=N)N)C(=O)N[C@@H](CCCNC(=N)N)C(=O)N[C@@H](CC(N)=O)C(=O)N[C@@H](CCCNC(=N)N)C(=O)N[C@@H](CCCNC(=N)N)C(=O)N[C@@H](CCCNC(=N)N)C(=O)N[C@@H](CCCNC(=N)N)C(=O)N[C@@H](Cc1c[nH]c2ccccc12)C(=O)N[C@@H](CCCNC(=N)N)C(=O)N[C@@H](CCC(=O)O)C(=O)N[C@@H](CCCNC(=N)N)C(=O)N[C@@H](CCC(N)=O)C(=O)N[C@H](CCCNC(=N)N)C(N)=O`, in test [1], the Ratio was found to be 5.4. Besides, binding in test [2] was characterised by a dissociation constant (Kd) of 0.016 µM.

On to `Cc1cn(CC(=O)N(CCNC(=O)CCC(=O)O)CC(=O)NCCN(CC(=O)N[C@@H](C)C(=O)N[C@@H](CCCNC(=N)N)C(=O)N[C@@H](CCCNC(=N)N)C(=O)N[C@@H](CC(N)=O)C(=O)N[C@@H](CCCNC(=N)N)C(=O)N[C@@H](CCCNC(=N)N)C(=O)N[C@@H](CCCNC(=N)N)C(=O)N[C@@H](CCCNC(=N)N)C(=O)N[C@@H](Cc2c[nH]c3ccccc23)C(=O)N[C@@H](CCCNC(=N)N)C(=O)N[C@@H](CCC(=O)O)C(=O)N[C@@H](CCCNC(=N)N)C(=O)N[C@@H](CCC(N)=O)C(=O)N[C@H](CCCNC(=N)N)C(N)=O)C(=O)Cn2ccc(N)nc2=O)c(=O)[nH]c1=O`, for which the Ratio in test [1] was 3.2. Also, the Kd in test [2] worked out at 0.027 µM. The corresponding values for `C[C@H](NC(=O)CN(CCNC(=O)CN(CCNC(=O)CN(CCNC(=O)CN(CCNC(=O)CCC(=O)O)C(=O)Cn1cnc2c(=O)[nH]c(N)nc21)C(=O)Cn1ccc(N)nc1=O)C(=O)Cn1cnc2c(=O)[nH]c(N)nc21)C(=O)Cn1ccc(N)nc1=O)C(=O)N[C@@H](CCCNC(=N)N)C(=O)N[C@@H](CCCNC(=N)N)C(=O)N[C@@H](CC(N)=O)C(=O)N[C@@H](CCCNC(=N)N)C(=O)N[C@@H](CCCNC(=N)N)C(=O)N[C@@H](CCCNC(=N)N)C(=O)N[C@@H](CCCNC(=N)N)C(=O)N[C@@H](Cc1c[nH]c2ccccc12)C(=O)N[C@@H](CCCNC(=N)N)C(=O)N[C@@H](CCC(=O)O)C(=O)N[C@@H](CCCNC(=N)N)C(=O)N[C@@H](CCC(N)=O)C(=O)N[C@H](CCCNC(=N)N)C(N)=O` are 15 and 0.0057 µM. Taken in the same sequence, the figures for `C[C@H](NC(=O)CN(CCNC(=O)CN(CCNC(=O)CN(CCNC(=O)CCC(=O)O)C(=O)Cn1cnc2c(=O)[nH]c(N)nc21)C(=O)Cn1cnc2c(=O)[nH]c(N)nc21)C(=O)Cn1ccc(N)nc1=O)C(=O)N[C@@H](CCCNC(=N)N)C(=O)N[C@@H](CCCNC(=N)N)C(=O)N[C@@H](CC(N)=O)C(=O)N[C@@H](CCCNC(=N)N)C(=O)N[C@@H](CCCNC(=N)N)C(=O)N[C@@H](CCCNC(=N)N)C(=O)N[C@@H](CCCNC(=N)N)C(=O)N[C@@H](Cc1c[nH]c2ccccc12)C(=O)N[C@@H](CCCNC(=N)N)C(=O)N[C@@H](CCC(=O)O)C(=O)N[C@@H](CCCNC(=N)N)C(=O)N[C@@H](CCC(N)=O)C(=O)N[C@H](CCCNC(=N)N)C(N)=O` were 9.9 and 0.0087 µM. Turning to `C[C@H](NC(=O)CN(CCNC(=O)CN(CCNC(=O)CN(CCNC(=O)CCC(=O)O)C(=O)Cn1ccc(N)nc1=O)C(=O)Cn1cnc2c(=O)[nH]c(N)nc21)C(=O)Cn1ccc(N)nc1=O)C(=O)N[C@@H](CCCNC(=N)N)C(=O)N[C@@H](CCCNC(=N)N)C(=O)N[C@@H](CC(N)=O)C(=O)N[C@@H](CCCNC(=N)N)C(=O)N[C@@H](CCCNC(=N)N)C(=O)N[C@@H](CCCNC(=N)N)C(=O)N[C@@H](CCCNC(=N)N)C(=O)N[C@@H](Cc1c[nH]c2ccccc12)C(=O)N[C@@H](CCCNC(=N)N)C(=O)N[C@@H](CCC(=O)O)C(=O)N[C@@H](CCCNC(=N)N)C(=O)N[C@@H](CCC(N)=O)C(=O)N[C@H](CCCNC(=N)N)C(N)=O`, the Ratio in test [1] was 9. Further, the affinity in test [2], expressed as Kd, was 0.0096 µM. For the compound `Cc1cn(CC(=O)N(CCNC(=O)CCC(=O)O)CC(=O)NCCN(CC(=O)NCCN(CC(=O)N[C@@H](C)C(=O)N[C@@H](CCCNC(=N)N)C(=O)N[C@@H](CCCNC(=N)N)C(=O)N[C@@H](CC(N)=O)C(=O)N[C@@H](CCCNC(=N)N)C(=O)N[C@@H](CCCNC(=N)N)C(=O)N[C@@H](CCCNC(=N)N)C(=O)N[C@@H](CCCNC(=N)N)C(=O)N[C@@H](Cc2c[nH]c3ccccc23)C(=O)N[C@@H](CCCNC(=N)N)C(=O)N[C@@H](CCC(=O)O)C(=O)N[C@@H](CCCNC(=N)N)C(=O)N[C@@H](CCC(N)=O)C(=O)N[C@H](CCCNC(=N)N)C(N)=O)C(=O)Cn2ccc(N)nc2=O)C(=O)Cn2cnc3c(=O)[nH]c(N)nc32)c(=O)[nH]c1=O`, the Ratio in test [1] was 5.1. In test [2], this compound gave a Kd of 0.017 µM. On to `C[C@H](NC(=O)CN(CCNC(=O)CCC(=O)O)C(=O)Cn1ccc(N)nc1=O)C(=O)N[C@@H](CCCNC(=N)N)C(=O)N[C@@H](CCCNC(=N)N)C(=O)N[C@@H](CC(N)=O)C(=O)N[C@@H](CCCNC(=N)N)C(=O)N[C@@H](CCCNC(=N)N)C(=O)N[C@@H](CCCNC(=N)N)C(=O)N[C@@H](CCCNC(=N)N)C(=O)N[C@@H](Cc1c[nH]c2ccccc12)C(=O)N[C@@H](CCCNC(=N)N)C(=O)N[C@@H](CCC(=O)O)C(=O)N[C@@H](CCCNC(=N)N)C(=O)N[C@@H](CCC(N)=O)C(=O)N[C@H](CCCNC(=N)N)C(N)=O`, for which the Ratio in test [1] was 2.8. Moreover, binding in test [2] was characterised by a dissociation constant (Kd) of 0.031 µM. Taken in the same sequence, the figures for `C[C@H](NC(=O)CN(CCNC(=O)CN(CCNC(=O)CN(CCNC(=O)CCC(=O)O)C(=O)Cn1cnc2c(N)ncnc21)C(=O)Cn1cnc2c(=O)[nH]c(N)nc21)C(=O)Cn1ccc(N)nc1=O)C(=O)N[C@@H](CCCNC(=N)N)C(=O)N[C@@H](CCCNC(=N)N)C(=O)N[C@@H](CC(N)=O)C(=O)N[C@@H](CCCNC(=N)N)C(=O)N[C@@H](CCCNC(=N)N)C(=O)N[C@@H](CCCNC(=N)N)C(=O)N[C@@H](CCCNC(=N)N)C(=O)N[C@@H](Cc1c[nH]c2ccccc12)C(=O)N[C@@H](CCCNC(=N)N)C(=O)N[C@@H](CCC(=O)O)C(=O)N[C@@H](CCCNC(=N)N)C(=O)N[C@@H](CCC(N)=O)C(=O)N[C@H](CCCNC(=N)N)C(N)=O` were 5.7 and 0.015 µM. In test [2], `CC(=O)NCCN(CC(=O)NCCN(CC(=O)NCCN(CC(=O)NCCN(CC(=O)NCCN(CC(=O)N[C@@H](CCCCN)C(=O)CN)C(=O)Cn1ccc(N)nc1=O)C(=O)Cn1cnc2c(O)nc(N)nc21)C(=O)Cn1ccc(N)nc1=O)C(=O)Cn1cnc2c(O)nc(N)nc21)C(=O)Cn1cc(C)c(=O)[nH]c1=O` displayed a Kd greater than 100 µM.

Turning to `Cc1cn(CC(=O)N(CCNC(=O)CCC(=O)O)CC(=O)N[C@@H](C)C(=O)N[C@@H](CCCNC(=N)N)C(=O)N[C@@H](CCCNC(=N)N)C(=O)N[C@@H](CC(N)=O)C(=O)N[C@@H](CCCNC(=N)N)C(=O)N[C@@H](CCCNC(=N)N)C(=O)N[C@@H](CCCNC(=N)N)C(=O)N[C@@H](CCCNC(=N)N)C(=O)N[C@@H](Cc2c[nH]c3ccccc23)C(=O)N[C@@H](CCCNC(=N)N)C(=O)N[C@@H](CCC(=O)O)C(=O)N[C@@H](CCCNC(=N)N)C(=O)N[C@@H](CCC(N)=O)C(=O)N[C@H](CCCNC(=N)N)C(N)=O)c(=O)[nH]c1=O`, in test [1], the Ratio stood at 2.2. In test [2], binding was characterised by a dissociation constant (Kd) of 0.039 µM. The corresponding values for `C[C@H](NC(=O)CN(CCNC(=O)CN(CCNC(=O)CN(CCNC(=O)CCC(=O)O)C(=O)Cn1ccc(N)nc1=O)C(=O)Cn1ccc(N)nc1=O)C(=O)Cn1ccc(N)nc1=O)C(=O)N[C@@H](CCCNC(=N)N)C(=O)N[C@@H](CCCNC(=N)N)C(=O)N[C@@H](CC(N)=O)C(=O)N[C@@H](CCCNC(=N)N)C(=O)N[C@@H](CCCNC(=N)N)C(=O)N[C@@H](CCCNC(=N)N)C(=O)N[C@@H](CCCNC(=N)N)C(=O)N[C@@H](Cc1c[nH]c2ccccc12)C(=O)N[C@@H](CCCNC(=N)N)C(=O)N[C@@H](CCC(=O)O)C(=O)N[C@@H](CCCNC(=N)N)C(=O)N[C@@H](CCC(N)=O)C(=O)N[C@H](CCCNC(=N)N)C(N)=O` are 2.5 and 0.034 µM. Turning to `C[C@H](NC(=O)CCC(=O)O)C(=O)N[C@@H](CCCNC(=N)N)C(=O)N[C@@H](CCCNC(=N)N)C(=O)N[C@@H](CC(N)=O)C(=O)N[C@@H](CCCNC(=N)N)C(=O)N[C@@H](CCCNC(=N)N)C(=O)N[C@@H](CCCNC(=N)N)C(=O)N[C@@H](CCCNC(=N)N)C(=O)N[C@@H](Cc1c[nH]c2ccccc12)C(=O)N[C@@H](CCCNC(=N)N)C(=O)N[C@@H](CCC(=O)O)C(=O)N[C@@H](CCCNC(=N)N)C(=O)N[C@@H](CCC(N)=O)C(=O)N[C@H](CCCNC(=N)N)C(N)=O`, the Ratio in test [1] is 1. In test [2], this compound registered a Kd of 0.086 µM. Taken in the same sequence, the figures for `C[C@H](NC(=O)CN(CCNC(=O)CN(CCNC(=O)CCC(=O)O)C(=O)Cn1cnc2c(N)ncnc21)C(=O)Cn1ccc(N)nc1=O)C(=O)N[C@@H](CCCNC(=N)N)C(=O)N[C@@H](CCCNC(=N)N)C(=O)N[C@@H](CC(N)=O)C(=O)N[C@@H](CCCNC(=N)N)C(=O)N[C@@H](CCCNC(=N)N)C(=O)N[C@@H](CCCNC(=N)N)C(=O)N[C@@H](CCCNC(=N)N)C(=O)N[C@@H](Cc1c[nH]c2ccccc12)C(=O)N[C@@H](CCCNC(=N)N)C(=O)N[C@@H](CCC(=O)O)C(=O)N[C@@H](CCCNC(=N)N)C(=O)N[C@@H](CCC(N)=O)C(=O)N[C@H](CCCNC(=N)N)C(N)=O` were 3.1 and 0.028 µM.

On to `C[C@H](NC(=O)CN(CCNC(=O)CN(CCNC(=O)CCC(=O)O)C(=O)Cn1ccc(N)nc1=O)C(=O)Cn1ccc(N)nc1=O)C(=O)N[C@@H](CCCNC(=N)N)C(=O)N[C@@H](CCCNC(=N)N)C(=O)N[C@@H](CC(N)=O)C(=O)N[C@@H](CCCNC(=N)N)C(=O)N[C@@H](CCCNC(=N)N)C(=O)N[C@@H](CCCNC(=N)N)C(=O)N[C@@H](CCCNC(=N)N)C(=O)N[C@@H](Cc1c[nH]c2ccccc12)C(=O)N[C@@H](CCCNC(=N)N)C(=O)N[C@@H](CCC(=O)O)C(=O)N[C@@H](CCCNC(=N)N)C(=O)N[C@@H](CCC(N)=O)C(=O)N[C@H](CCCNC(=N)N)C(N)=O`, for which the Ratio in test [1] turned out to be 3.1. In addition, binding in test [2] was put at a Kd of 0.028 µM. As to `CC(=O)N(CCNC(=O)NCC(=O)O)CC(=O)N[C@H](C)C(=O)N[C@@H](CCCNC(=N)N)C(=O)N[C@@H](CCCNC(=N)N)C(=O)N[C@@H](CC(N)=O)C(=O)N[C@@H](CCCNC(=N)N)C(=O)N[C@@H](CCCNC(=N)N)C(=O)N[C@@H](CCCNC(=N)N)C(=O)N[C@@H](CCCNC(=N)N)C(=O)N[C@@H](Cc1c[nH]c2ccccc12)C(=O)N[C@@H](CCCNC(=N)N)C(=O)N[C@@H](CCC(=O)O)C(=O)N[C@@H](CCCNC(=N)N)C(=O)N[C@@H](CCC(N)=O)C(=O)N[C@H](CCCNC(=N)N)C(N)=O`, the Ratio in test [1] was 2. Moreover, in test [2], the Kd turned out to be 0.044 µM.
